In this test the target is CCR5 receptors (Homo sapiens, UniProt P51681). The test can be described thus: inhibition of binding of HIV envelope protein (gp120) to CCR5 receptors. The note with it: procedure of Example 1 of EP 1 118 858 A2. The source says:
Biol., 60, 147-52 (1996); by using the intracellular calcium mobilisation assays as described by the same authors; and by their ability to inhibit binding of HIV envelope protein (gp120) to CCR5 receptors according to the procedure described in Example 1 of EP 1 118 858 A2 (pp 85-88). Cell lines expressing the receptor of interest include those naturally expressing the receptor, such as PM-1, or IL-2 stimulated peripheral blood lymphocytes (PBL), or a cell engineered to express a recombinant receptor, such as CHO, 300.19, L1.2 or HEK-293.
The ability of the compounds of formula (I) to inhibit binding of HIV envelope protein (gp120) to CCR5 receptors was determined by the procedure described in Example 1 of EP 1 118 858 A2.

[1] abbreviates: IC50, inhibition of binding of HIV envelope protein (gp120) to CCR5 receptors.

Where two headings read alike, the source gives them in different places.

In general, IC50 refers to the point on the concentration scale where inhibition reaches its midpoint.

Chain of CCR5 receptors (P51681 whole entry): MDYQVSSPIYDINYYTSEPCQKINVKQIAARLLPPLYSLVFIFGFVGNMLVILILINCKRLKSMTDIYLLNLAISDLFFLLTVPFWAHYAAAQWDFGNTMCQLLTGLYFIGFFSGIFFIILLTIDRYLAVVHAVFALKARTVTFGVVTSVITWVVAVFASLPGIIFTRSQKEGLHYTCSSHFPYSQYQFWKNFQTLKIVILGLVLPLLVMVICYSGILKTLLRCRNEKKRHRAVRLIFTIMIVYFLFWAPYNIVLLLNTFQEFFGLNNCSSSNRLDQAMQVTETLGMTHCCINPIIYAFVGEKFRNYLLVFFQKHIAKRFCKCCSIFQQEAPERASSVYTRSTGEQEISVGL

Turning to `CC(=O)N[C@@H](CCN1C2CCC1CC(n1c(C)nc3c1CN(C(=O)C(C)C)CC3)C2)c1ccccc1` (stereo partly drawn) [Example 9, N-{(1S)-3-[3-endo-(5-Isobutyryl-2-methyl-4,5,6,7-tetrahydro-3H-imidazo[4,5-c]pyridin-3-yl)-8-azabicyclo[3.2.1]oct-8-yl]-1-phenylpropyl}acetamide], the IC50 under setting [1] turned out to be 7 nM.
The same measure, in the same setting: in the case of `COC(=O)N[C@@H](CCN1C2CCC1CC(n1c(C)nc3c1CN(C(C)=O)CC3)C2)c1cccc(F)c1` (stereo partly drawn) [Example 17, Methyl (1S)-3-[3-endo-(5-acetyl-2-methyl-4,5,6,7-tetrahydro-3H-imidazo[4,5-c]pyridin-3-yl)-8-azabicyclo[3.2.1]oct-8-yl]-1-(3-fluorophenyl)propylcarbamate] it was 15 nM.
As to `COC(=O)N[C@@H](CCN1C2CCC1CC(n1c(C)nc3c1CCN(C(=O)OC)C3)C2)c1ccccc1` (stereo partly drawn) [Example 30, Methyl 1-endo-(8-{(3S)-3-[(methoxycarbonyl)amino]-3-phenylpropyl}-8-azabicyclo[3.2.1]oct-3-yl)-2-methyl-4,5,6,7-tetrahydro-1H-imidazo[4,5-c]pyridine-5-carboxylate], the IC50 (read-out: IC50, inhibition of binding of HIV envelope protein (gp120) to CCR5 receptors) came to 7 nM.
`COC(=O)N1CCc2c(nc(C)n2C2CC3CCC(C2)N3CC[C@H](NC(C)=O)c2cccc(F)c2)C1` (stereo partly drawn) [Example 33, Methyl 1-endo-{8-[(3S)-3-(acetylamino)-3-(3-fluorophenyl)propyl]-8-azabicyclo[3.2.1]oct-3-yl}-2-methyl-4,5,6,7-tetrahydro-1H-imidazo[4,5-c]pyridine-5-carboxylate] showed an IC50 under setting [1] of 23 nM.
On the same count and under the same terms, to `COC(=O)N1CCc2c(nc(C)n2C2CC3CCC(C2)N3CC[C@H](NC(C)=O)c2cccc(F)c2)C1` (stereo partly drawn) [Example 44, Methyl 1-endo-{8-[(3S)-3-(acetamido)-3-(3-fluorophenyl)propyl]-8-azabicyclo[3.2.1]oct-3-yl}-2-methyl-4,5,6,7-tetrahydro-1H-imidazo[4,5-c]pyridine-5-carboxylate monohydrate] belongs 14 nM.

The record behind these values is patent US7579471B2, “Tropane derivatives useful in therapy” (Pfizer, Inc., priority 2002, dated 2009).
